# Reference: patent US20070238146A1, “Kinetic metabolic assay for antifungal susceptibility testing” (priority 2006, published 2007)
# How the values were obtained:
# Assay type in all cases: cell-based, Candida albicans
# [1] = system: planktonic C. albicans cells; experiment: kinetic metabolic assay (KMA, alamarBlue) of planktonic cells after 1 h AmB treatment
# Experimental: Planktonic cultures. Cultures were grown aerobically in 250-ml Erlenmeyer flasks containing 100 ml growth medium. The flasks were placed in a shaker incubator at 37° C. and 160 rpm for the desired period of growth. C. albicans grew as budding yeast under these conditions. Exponential phase cells were harvested after a 5-h growth period and stationary-phase cells at 96 h.
# AmB treatment. AmB was from Biosource International Inc. (Fungizone with 0.00205% sodium deoxycholate solubilizing agent). A standard broth dilution method was used to assess the AmB MlC of CA-1, with ATCC 24433 used as a reference strain (32). AmB treatment of planktonic cells and shear-removed biofilm was preformed in 1.5-ml centrifuge tubes. The tubes contained a total working volume of 450 μl. AmB dissolved in 200 μl of 0.1 M PBS (pH 7.0), and cells resuspended in 250 μl of PBS adjusted to an optical density of 0.05 (A660) were added to the 1.5-ml tube. After more than 10 preliminary experiments, the time between recovery of the shear-removed biofilm in the petri dish and exposure to AmB was reduced to approximately 5 min. The positive controls had no AmB, and the negative controls had no cells. For AmB treatment of the basal blastospore population, each sample consisted of a 0.5-cm long section of tubing cut from the TF. Each tubing sample was positioned in the 96-well plate (Corning Inc.; Costar 3370) such that its outer wall snugly fit along the wall of the well in the 96-well plate. This enabled recording of absorbance data for the metabolic indicator in real time without perturbing the well contents. The 0.5-cm tubing samples were randomly placed in the 96-well plate in order to randomize the distribution between treated samples and untreated controls. Solution (225 μl) containing AmB in 0.1 M PBS was added to wells to completely submerge the 0.5-cm tubing during the AmB treatment phase. Untreated samples were the positive controls. Three independent TF experiments were run, generating 24 samples per AmB concentration and 61 untreated controls for the basal blastospores. Sterile tubing was used as a negative control. In every experiment, a minimum of four negative controls were used. The AmB treatment period was 1 h across all cell populations. During AmB exposure, the 1.5-m1 tubes (containing either the planktonic or shear-removed populations) and 96 -well plates (containing the basal blastospores) were placed in a shaker incubator at 37° C. and 150 rpm. […]
# Kinetic curves. Kinetic data of the reduction of metabolic indicators and turbidimetric changes were recorded for both AmB treated and untreated samples. […] The kinetic assay in the 96 well format was run for 24 h at 37° C. with continuous shaking in a Synergy-HT plate reader (Biotek Inc.). […]
# [2] = system: C. albicans biofilm basal blastospores; experiment: KMA for in situ biofilm susceptibility testing (alamarBlue, modified medium, t-threshold)
# Experimental: Biofilm cultures. Biofilms were grown in a tubular flow cell (TF). Silicone tubing (Cole-Panmer; catalog no. EW-95802-08) with an inner diameter of 4.78 mm, an outer diameter of 6.35 mm, a wall of 0.79 mm, and a length of 60 cm constituted the biofilm-growing region of the TF. The source of growth medium for the TF was a 2-liter Erlenineyer flask. A bubble trap was placed between the Erlenmeyer flask and the TF to prevent passage of air bubbles during biofilm growth. Flow rates of 1.17 ml/min (shear rate, 109.5 s^−1) were maintained by a peristaltic pump coupled at the effluent end of the TF. The residence time for the volume of liquid contained in the tubular reactor portion of the flow system (20-cm length of tubing) was 3 min. This condition ensured that the contribution to the cell population in the TF from cells in the planktonic mode of growth (doubling time, approximately 80 min) was negligible. After sterilization by autoclaving, the entire setup was placed horizontally on a grilled shelf in an incubator at 37° C. The TF was filled with growth medium before being inoculated with cells. The inoculum was prepared from a 24-h planktonic culture at a concentration of 10^8 cells/ml in 0.1 M phosphate-buffered saline (PBS, pH 7) buffer. It was fed into the TF from the effluent end by reversing the direction of flow. Flow was then discontinued for 1 h. After the 1 -h inoculation period, flow was resumed for 36 h. At the end of this culture period, the section of tubing in which the biofilm grew was clamped at both ends and removed by cutting the tubing with a sterile blade. The liquid column was drained into a petri dish by moving the tubing to a vertical position and releasing the clamps. The tubing was then rinsed with PBS buffer equivalent to one tube volume. The fraction of biofilm collected in the petri dish by this procedure is referred to as the shear-removed biofilm. […]
# AmB treatment. […] This enabled recording of absorbance data for the metabolic indicator in real time without perturbing the well contents. […]
# [3] = system: planktonic C. albicans cells; experiment: CFU assay of planktonic cells after AmB treatment; settings: exponential phase planktonic cells
# Experimental: CFU assay. CFU were estimated for both AmB treated and untreated planktonic sample. 100 μl planktonic C. albicans cells in PBS were serially diluted in 2 ml cuvettes (catalog no. BTCUV, Biotrace Inc.). The serial dilution was 10-fold across each cuvette. The required number of serial dilutions per sample were judged based on trial and error. A volume of 100 μl from each serially diluted cuvette was spread as a separate lane on an agar plate. […] Plates were incubated at 37° C. for 24 hours. CFU were estimated from dilutions whose numbers fell in the range of 10 to 100 colonies per lane. The appropriate dilution factor was multiplied to estimate the final viable cell concentration for every sample.
# AmB treatment. AmB was from Biosource International Inc. (Fungizone with 0.00205% sodium deoxycholate solubilizing agent). A standard broth dilution method was used to assess the AmB MlC of CA-1, with ATCC 24433 used as a reference strain (32). AmB treatment of planktonic cells and shear-removed biofilm was preformed in 1.5-ml centrifuge tubes. The tubes contained a total working volume of 450 μl. […] This enabled recording of absorbance data for the metabolic indicator in real time without perturbing the well contents. […]
# (ii) Calculation of percent viability. Viability in terms of CFU was calculated by using the kinetic parameters estimated for each sample and the corresponding calibrations. […]
smiles,measurement,setting,value
"C[C@@H]1[C@H](O)[C@@H](C)/C=C/C=C/C=C/C=C/C=C/C=C/C=C/[C@H](O[C@@H]2O[C@H](C)[C@@H](O)[C@H](N)[C@@H]2O)C[C@@H]2O[C@](O)(C[C@@H](O)C[C@@H](O)[C@H](O)CC[C@@H](O)C[C@@H](O)CC(=O)O[C@H]1C)C[C@H](O)[C@H]2C(=O)O [AmB, amphotericin B]",AmB concentration beyond which complete killing is achieved,"[1]; exponential phase planktonic cells, KMA, 1 h AmB treatment",> 1.77 µg/mL
same,AmB concentration up to which viability is detected,"[1]; modified medium, exponential-phase cells, alamarBlue, t-threshold (FIG. 5)",1.77 µg/mL
same,AmB concentration up to which cells survive,"[1]; stationary phase planktonic cells, alamarBlue, t-threshold, 1 h AmB treatment (FIG. 6)",3.55 µg/mL
same,AmB concentration up to which viability is detected (detection limit),"[1]; unmodified medium, exponential-phase cells, alamarBlue, t-threshold (FIG. 5)",0.88 µg/mL
same,activity of basal blastospores relative to other populations,"[2]; AmB concentrations greater than or equal to 3.7 μg/ml, versus shear removed biofilm, stationary and exponential phase planktonic cells",clearly more active than the other three populations
same,AmB concentration up to which metabolic activity was exhibited,"[2]; basal blastospore subpopulation in situ, highest tested concentration, 1 h AmB treatment",28.26 µg/mL
same,loss of metabolic activity of basal blastospores relative to other samples,[2]; lower AmB concentrations (<1.77 μg/ml),greater loss of metabolic activity than the other samples
same,AmB concentration beyond which complete killing was observed,[3],> 1.77 µg/mL
